{
  "source": "patent US20110190253A1",
  "about": "“METHOD FOR TREATING TUBERCULOSIS” (priority 2008, published 2011)",
  "key": {"[1]": {"test_system": "M. tuberculosis in viable but nonreplicative (NRP) state", "test": "Wayne model, nonreplicative (NRP2) cultures, viability by intracellular ATP and CFUs", "type": "cell-based", "conditions": "for kill over a 2-week exposure time: meropenem in combination with clavulanate, metronidazole as control compound; for reduction of viability (intracellular ATP, CFUs): combination with clavulanate, anaerobic chamber, 1 week and 2 weeks, data not shown"}, "[2]": {"test_system": "M. tuberculosis Erdman strain", "test": "broth microdilution in 7H9 broth, 96 well plates, M. tuberculosis growth after 1 week of incubation", "type": "cell-based", "conditions": "one week of incubation"}, "[3]": {"test_system": "M. tuberculosis H37Rv", "test": "minimum inhibitory concentration (MIC) in 7H9 medium at 37° C.", "type": "cell-based", "conditions": "for effect of addition of clavulanate on the MIC value: absence vs presence of 2.5 μg ml^−1 clavulanate, data not shown"}, "[4]": {"target": "BlaC (Mycobacterium tuberculosis, UniProt P9WKD3)", "sequence (P9WKD3 35-307)": "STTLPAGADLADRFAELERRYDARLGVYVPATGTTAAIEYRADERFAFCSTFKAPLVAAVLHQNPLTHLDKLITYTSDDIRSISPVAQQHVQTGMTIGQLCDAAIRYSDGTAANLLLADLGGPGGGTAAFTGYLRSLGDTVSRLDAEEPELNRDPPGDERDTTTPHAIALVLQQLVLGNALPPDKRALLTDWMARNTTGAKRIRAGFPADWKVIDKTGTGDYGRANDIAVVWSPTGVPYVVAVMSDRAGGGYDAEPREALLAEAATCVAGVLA", "test": "rate of hydrolysis by BlaC", "type": "biochemical, M. tuberculosis"}, "[5]": {"test_system": "M. tuberculosis Erdman strain", "test": "MIC against Erdman strain", "type": "cell-based", "conditions": "Mycobacterium tuberculosis, read-out: MIC value"}, "[6]": {"conditions": "at any concentration of clavulanate (0.0.5, 1 and 2 μg/ml)"}},
  "data": [
    {"compound": "Cc1ncc([N+](=O)[O-])n1CCO", "note": "[metronidazole]", "values": [
      {"measurement": "kill over a 2-week exposure time", "setting": "[1]", "result": "comparable"}
    ]},
    {"compound": "CC1(C)S[C@@H]2[C@H](NC(=O)[C@H](N)c3ccc(O)cc3)C(=O)N2[C@H]1C(=O)O", "note": "[amoxicillin]", "values": [
      {"measurement": "reduction of viability (intracellular ATP, CFUs)", "setting": "[1]", "result": "effective in reducing viability"},
      {"measurement": "inhibition of M. tuberculosis growth", "setting": "[2]; 4 μg/ml of amoxicillin and 1-2 μg/ml clavulanate", "result": "Modest inhibition"},
      {"measurement": "effect of addition of clavulanate on the MIC value", "setting": "[3]", "result": "only a modest effect"}
    ]},
    {"compound": "CC1(C)S[C@@H]2[C@H](NC(=O)[C@H](N)c3ccccc3)C(=O)N2[C@H]1C(=O)O", "note": "[ampicillin]", "values": [
      {"measurement": "effect of addition of clavulanate on the MIC value", "setting": "[3]", "result": "only a modest effect"}
    ]},
    {"compound": "CC(C)(O/N=C(\\C(=O)N[C@@H]1C(=O)N2C(C(=O)[O-])=C(C[n+]3ccccc3)CS[C@H]12)c1csc(N)n1)C(=O)O", "note": "[ceftazidime]", "values": [
      {"measurement": "inhibition of M. tuberculosis growth", "setting": "[2]; [6]", "result": "no inhibition"}
    ]},
    {"compound": "C[C@@H](O)[C@H]1C(=O)N2C(C(=O)O)=C(S[C@@H]3CN[C@H](C(=O)N(C)C)C3)[C@H](C)[C@H]12", "note": "[meropenem]", "values": [
      {"measurement": "rate of hydrolysis by BlaC", "setting": "[4]", "result": "low"},
      {"measurement": "reduction of viability (intracellular ATP, CFUs)", "setting": "[1]", "result": "more pronounced"},
      {"measurement": "kill over a 2-week exposure time", "setting": "[1]", "result": "more than a log kill"},
      {"measurement": "M. tuberculosis growth", "setting": "[2]; 1 μg/ml meropenem in combination with 1 μg/ml clavulanate", "result": "No M. tuberculosis growth"},
      {"measurement": "MIC value in the presence of clavulanate", "setting": "[3]; 7H9 medium, 37° C., 2.5 μg ml^−1 clavulanate", "result": 0.32, "unit": "µg/mL"},
      {"measurement": "MIC", "setting": "[3]; Mycobacterium tuberculosis, with clavulanate, as restated", "result": "≤ 1", "unit": "µg/mL"},
      {"measurement": "MIC", "setting": "[5]", "result": "≤ 1", "unit": "µg/mL"}
    ]},
    {"compound": "CO/N=C(\\C(=O)N[C@@H]1C(=O)N2C(C(=O)O)=C(COC(N)=O)CS[C@H]12)c1ccco1", "note": "[cefuroxime]", "values": [
      {"measurement": "reduction of viability (intracellular ATP, CFUs)", "setting": "[1]", "result": "effective in reducing viability"},
      {"measurement": "inhibition of M. tuberculosis growth", "setting": "[2]; 2 μg/ml cefuroxime and 2 μg/ml clavulanate", "result": "Modest inhibition"}
    ]},
    {"compound": "CCN1CCN(C(=O)N[C@@H](C(=O)N[C@@H]2C(=O)N3[C@@H]2SC(C)(C)[C@@H]3C(=O)O)c2ccccc2)C(=O)C1=O", "note": "[piperacillin]", "values": [
      {"measurement": "inhibition of M. tuberculosis growth", "setting": "[2]; [6]", "result": "no inhibition"}
    ]}
  ]
}
